Measurements: patent US20080268483A1, “Methods for a Global Assay of Coagulation and Fibrinolysis” (The Regents of the University of Colorado, priority 2004, published 2008)

Experiments:
[1] = system: standard normal pooled plasma; assay: CloFAL assay, heparin studies and heparinase reversal; assay type: biochemical, human
Text: The assay described here was modified from those of He et al. (1999) and Smith et al. (2003). As compared to that by Smith et al., which evaluates only fibrinolysis, the CloFAL assay permits assessment of coagulability as well. Furthermore, when compared to the global assay of He et al., the CloFAL assay permits testing with a single reagent to evaluate both coagulation and fibrinolysis, rather than requiring (as does that of He et al.) the preparation of two distinct reagents for separate evaluation of the plasma sample. […] Frozen plasma aliquots were thawed in a 37° C. water bath for three minutes. […]
For each patient sample to be analyzed, 75 μL of freeze-thawed or fresh plasma was dispensed into each of three wells in a round-bottom, 96-well, Nunc assay plate (Fisher Scientific, Santa Clara, Calif.), and then pre-warmed at 37° C. for three minutes. […] The plate was then immediately placed in an eight-channel microplate spectrophotometer (PowerWave HT, Bio-Tek Instruments, Winooski, Vt.) for dual kinetic absorbance measurements at 405 nm and 630 nm at 45-second intervals for 3 hours, following an initial five-second mixing step prior to the first reading. The spectrophotometer interfaced with a computer such that all its operations, including continuous analysis of delta-absorbance (405 nm minus 630 nm) data using KC4™ PC software, may be automated. […]

[2] = system: standard normal pooled plasma; assay: CloFAL assay, altered fibrinolysis studies in treated standard normal pooled plasma; assay type: biochemical, human; conditions: TAFIa inhibition by PTCI, final plasma concentration 50 μg/mL
Description: Frozen plasma aliquots were thawed in a 37° C. water bath for three minutes. […] Plasma samples (fresh or freeze-thawed) were maintained for up to 30 minutes in an ice-water bath until time of assay. […]
The kinetic absorbance data was exported to Microsoft Excel and absorbance measurements at each time point were averaged for the triplicate runs of each specimen. Using the averaged absorbance for the specimen, the maximum amplitude of rise in absorbance was determined (MA=maximum absorbance minus baseline absorbance, where baseline absorbance was obtained by averaging the third through eighth kinetic readings). […]

Row | rise in absorbance of the CloFAL curve ([1]; heparin at 2 U/mL in standard normal pooled plasma) | rise in absorbance of the CloFAL curve ([1]; heparin concentrations of as little as 0.1 U/mL) | Substance | FI (fibrinolytic index) [2] | duration of the first phase of decline in turbidity in the CloFAL curve [2]
1 | greatly prevented | prolongation and attenuation | heparin |  | 
2 |  |  | PTCI: potato tuber carboxypeptidase inhibitor (Sigma-Aldrich), blocks TAFI activation to enhance fibrinolysis (QQHADPICNKPCKTHDDCSGAWFCQACWNSARTCGPYVG; UniProt P01075 1-39, looked up) | increased | prolonged
